From US8557800B2, “Sphingosine kinase inhibitors” (Apogee Biotechnology Corporation, priority 2005, dated 2013)

Experiments:
Assay type in all cases: cell-based
[1] = tested on: MCF-10A non-transformed human breast epithelial cells; experiment: Cytotoxicity, SRB binding assay; conditions: inhibition of cell proliferation, 48 h, read-out: MCF-10A IC50
Method in brief: (§1)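 Cells exposed to varying compound doses for 48 h, then survival measured by sulforhodamine B staining. IC50 is the concentration giving 50% proliferation inhibition, in μM, as mean±sd of replicate trials.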

[2] = tested on: MCF-7 human breast adenocarcinoma cells; experiment: Cytotoxicity, SRB binding assay; conditions: MCF7, inhibition of cell proliferation, 48 h, read-out: MCF-7 IC50
Method in brief: as §1

A-498 (kidney) = experiment: Human tumor cell line panel, sulforhodamine B; conditions: A498, 48 hours, mean ± sd
HT-29 (colon) = experiment: Human tumor cell line panel, sulforhodamine B; conditions: 48 hours, mean ± sd
MDA-MB-231 (breast, ER−) = experiment: Human tumor cell line panel, sulforhodamine B; conditions: 48 hours, mean ± sd
SK-OV-3 (ovary) = experiment: Human tumor cell line panel, sulforhodamine B; conditions: 48 hours, mean ± sd
T24 (bladder) = experiment: Human tumor cell line panel, sulforhodamine B; conditions: 48 hours, mean ± sd
[3] = tested on: Cox-2 activity in IEC6 rat intestinal epithelial cells; experiment: TNFα-induced PGE2 production, ELISA; conditions: 100 ng of TNFα/mL 18 hours
Experimental: (§2) FIG. 6. Inhibition of TNFα-induced Cox-2 activity by Compound 62. Rat IEC6 cells (Panel A) or human endothelial cells (Panel B) were incubated for 18 hours with dimethylsulfoxide (DMSO) as a solvent control, or 100 ng of TNFα/mL in the presence of DMSO or […] of Compound 62. Levels of PGE2 secreted into the medium were quantified by ELISA. Values represent the mean±sd for triplicate samples in a typical experiment.
(§3) To determine the effects of the SK inhibitors on Cox-2 activity, an ELISA assay was used to measure PGE2 production by IEC6 rat intestinal epithelial cells and human endothelial cells treated with TNFα.

[4] = tested on: Cox-2 activity in human endothelial cells; experiment: TNFα-induced PGE2 production, ELISA; conditions: 100 ng of TNFα/mL 18 hours
Experimental: as §2, §3

Work on `O=C(NCc1ccncc1)C12CC3CC(C1)CC(c1ccc(Cl)cc1)(C3)C2` [Compound 62, 3-(4-Chloro-phenyl)-adamantane-1-carboxylic acid (pyridin-4-ylmethyl)-amide] yielded an IC50 [1] of 21 µM, an IC50 [2] of 17 µM and an IC50 (A-498 (kidney)) of 12.2 ± 6 µM. The IC50 (HT-29 (colon)) was 48.1 ± 7.6 µM, the IC50 (MDA-MB-231 (breast, ER−)) was 29.1 ± 11.1 µM and the IC50 (SK-OV-3 (ovary)) was 10.5 ± 2.6 µM. The IC50 (T24 (bladder)) was 39.4 ± 7.4 µM, the “induction of Cox-2 activity by TNFα (PGE2 production)” value [3] was “strongly suppressed” and the “induction of Cox-2 activity by TNFα (PGE2 production)” value [4] was “strongly suppressed”.
